The values below are quoted from earlier work in US12161629B2, “Methods and compositions for treatment of glaucoma and related conditions” (Opus Genetics, Inc., priority 2018, dated 2024).

Molecules are shown by their SMILES. Structures can show the parent of a compound that is named as a salt. Where two headings read alike, the source gives them in different places.

The test system of series [1] is eyes of patients.
Series [2] relates to alpha-1 adrenergic receptor.

As to `Cc1ccccc1N1CCN(CCc2nnc3n2CCCC3)CC1` [dapiprazole hydrochloride], the “effect on intraocular pressure” value in series [1] (in normotensive eyes or in eyes with elevated intraocular pressure) is “not significantly alter intraocular pressure”.

For `CCCC(=O)N1CCCN(c2nc(N)c3cc(OC)c(OC)cc3n2)CC1` [bunazosin], the “effect on intraocular pressure” value in series [1] (in patients, Hara et al., Cardiovascular Drug Reviews (2005)) was “decreased intraocular pressure in patients”. Moreover, in series [2], the “inhibitory activity, alpha-1 versus alpha-2 adrenergic receptor” value is reported as “greater inhibitory activity towards (i) the alpha-1 adrenergic receptor compared to the (ii) alpha-2 adrenergic receptor”.
